The conditions of data set [1]: Crystal; DTA.
A short description of data set [2]: Molar enthalpy of transition or fusion. The settings on record: Crystal; DSC.

Numbers after ± are expanded uncertainties.

Take `CC(=O)c1cccc(O)c1` [1-(3-hydroxyphenyl)ethanone]: the Normal melting temperature in data set [1] worked out at 93.6 ± 0.5 °C. For the same compound, the “Molar enthalpy of transition or fusion” value in data set [2] came to 23.4 ± 0.69 kJ/mol.

As for `CC(=O)c1ccc(O)cc1` [4'-hydroxyacetophenone], the Normal melting temperature in data set [1] is 108.2 ± 0.5 °C. The “Molar enthalpy of transition or fusion” value in data set [2] turned out to be 17 ± 0.53 kJ/mol.

Consider `CC(=O)Nc1ccccc1` [N-phenylethanamide], for which, in data set [1], the Normal melting temperature amounted to 113.8 ± 0.5 °C. Also, the “Molar enthalpy of transition or fusion” value in data set [2] is 21.4 ± 0.64 kJ/mol.

Consider `CC(=O)c1ccc(N)cc1` [4-acetylaniline], for which the Normal melting temperature in data set [1] turned out to be 105.1 ± 0.5 °C. Besides, in data set [2], the “Molar enthalpy of transition or fusion” value was 19.6 ± 0.59 kJ/mol.

Values taken from the NIST ThermoML archive (doi:10.1016/j.fluid.2005.03.023).
